Experimental data from the supplement of paper PMC11061612.

Key:
Assay in all cases: combination Emax (second highest fraction inhibited in the dose matrix, 72 h); higher = more inhibition; extreme values may be limits of the assay
[1] = test system: SNU-398 (Hepatocellular Carcinoma)
Method in brief: (§1)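 After 24 hours at 37°C and 5% CO2 in 1536-well plates, cells in DMEM/F12 or RPMI plus 10% FBS received two-drug dose matrices for 72 hours. Viability came from CellTiter-Glo 2.0 luminescence and was scaled as inhibition, anchored at 0 by vehicle wells and at 1 by blank wells. Combination Emax is taken as the second-highest inhibition in the matrix, and Bliss excess as the observed combination effect less EA + EB − EA·EB, with EA and EB the single-agent effects.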

[2] = test system: SJSA-1 (Osteosarcoma)
Method in brief: as §1

[3] = test system: PC-3 (Prostate Carcinoma)
Method in brief: as §1

[4] = test system: HCC1187 (Breast Carcinoma)
Method in brief: as §1

[5] = test system: CW-2 (Colorectal Carcinoma)
Method in brief: as §1

[6] = test system: HCC1419 (Breast Carcinoma)
Method in brief: as §1

[7] = test system: T-T (Esophageal Squamous Cell Carcinoma)
Method in brief: as §1

[8] = test system: MOG-G-CCM (Low Grade Glioma)
Method in brief: as §1

[9] = test system: NCI-H929 (Plasma Cell Myeloma)
Method in brief: as §1

[10] = test system: DMS-114 (Small Cell Lung Carcinoma)
Method in brief: as §1

[11] = test system: NCI-H661 (Non-Small Cell Lung Carcinoma)
Method in brief: as §1

[12] = test system: DAN-G (Pancreatic Carcinoma)
Method in brief: as §1

[13] = test system: H9 (T-Cell Non-Hodgkin's Lymphoma)
Method in brief: as §1

[14] = test system: ESO51 (Esophageal Adenocarcinoma)
Method in brief: as §1

[15] = test system: CHSA8926 (Chondrosarcoma)
Method in brief: as §1

[16] = test system: MOLM-13 (Acute Myeloid Leukemia)
Method in brief: as §1

[17] = test system: G-361 (Melanoma)
Method in brief: as §1

[18] = test system: RPMI-8226 (Plasma Cell Myeloma)
Method in brief: as §1

[19] = test system: NCCIT (Other Solid Carcinomas)
Method in brief: as §1

[20] = test system: SUP-B15 (B-Lymphoblastic Leukemia)
Method in brief: as §1

SMILES | combination Emax [1] | combination Emax [2] | combination Emax [3] | combination Emax [4] | combination Emax [5] | combination Emax [6] | combination Emax [7] | combination Emax [8] | combination Emax [9] | combination Emax [10] | combination Emax [11] | combination Emax [12] | combination Emax [13] | combination Emax [14] | combination Emax [15] | combination Emax [16] | combination Emax [17] | combination Emax [18] | combination Emax [19] | combination Emax [20]
CC1(C)CCC(CN2CCN(c3ccc(C(=O)NS(=O)(=O)c4ccc(NCC5CCOCC5)c([N+](=O)[O-])c4)c(Oc4cnc5[nH]ccc5c4)c3)CC2)=C(c2ccc(Cl)cc2)C1 [Venetoclax] + C=CCn1c(=O)c2cnc(Nc3ccc(N4CCN(C)CC4)cc3)nc2n1-c1cccc(C(C)(C)O)n1 [AZD1775] (first compound max 1 µM, partner max 1 µM) | 0.711 | 0.453 | 0.29 | 0.442 | 0.311 | 0.254 | 0.711 | 0.688 | 0.659 | 0.437 | 0.63 | 0.747 | 0.966 | 0.647 | 0.57 | 1 | 0.589 | 0.538 | 0.907 | 1
COc1cccc(OCCCN)c1-c1cc(Nc2cnc(C#N)cn2)n[nH]1 [Prexasertib] + O=C(c1cc(Cc2n[nH]c(=O)c3ccccc23)ccc1F)N1CCN(C(=O)C2CC2)CC1 [Olaparib] (first compound max 1 µM, 7x7, partner max 10 µM) | 0.383 | 0.639 | 0.43 | 0.614 | 0.301 | 0.266 | 0.795 | 0.673 | 0.727 | 0.412 | 0.797 | 0.801 | 1 | 0.555 | 0.398 | 1 | 0.668 | 0.999 | 0.621 | 0.98
CN(CCO)CC[C@H](CSc1ccccc1)Nc1ccc(S(=O)(=O)NC(=O)c2ccc(N3CCC([C@@H](O)c4ccccc4-c4ccc(Cl)cc4)CC3)cc2)cc1S(=O)(=O)C(F)(F)F [AZD4320] + C=CCn1c(=O)c2cnc(Nc3ccc(N4CCN(C)CC4)cc3)nc2n1-c1cccc(C(C)(C)O)n1 [AZD1775] (first compound max 1 µM, partner max 1 µM) | 0.739 | 0.392 | 0.204 | 0.549 | 0.324 | 0.0041 | 0.523 | 0.733 | 0.402 | 0.373 | 0.613 | 0.904 | 1 | 0.775 | 0.852 | 1 | 0.665 | 0.997 | 0.878 | 1
CC1(C)CCC(CN2CCN(c3ccc(C(=O)NS(=O)(=O)c4ccc(NCC5CCOCC5)c([N+](=O)[O-])c4)c(Oc4cnc5[nH]ccc5c4)c3)CC2)=C(c2ccc(Cl)cc2)C1 [Venetoclax] + Cn1cnc2c(F)c(Nc3ccc(Br)cc3Cl)c(C(=O)NOCCO)cc21 [Selumetinib] (first compound max 1 µM, 7x7, partner max 3 µM) | 0.352 | 0.325 | 0.152 | 0.129 | 0.191 | 0.201 | 0.221 | 0.0923 | 0.386 | 0.0989 | 0.0912 | 0.233 | 0.931 | 0.384 | 0.148 | 1 | 0.702 | 0.325 | 0.112 | 1
Cn1cnc2c(F)c(Nc3ccc(Br)cc3Cl)c(C(=O)NOCCO)cc21 [Selumetinib] + CCN(CCO)CCCOc1ccc2c(Nc3cc(CC(=O)Nc4cccc(F)c4)[nH]n3)ncnc2c1 [AZD2811] (first compound max 10 µM, 7x7, partner max 1 µM) | 0.662 | 0.384 | 0.141 | 0.94 | 0.349 | 0.113 | 0.269 | 0.457 | 0.698 | 0.281 | 0.0527 | 0.519 | 1 | 0.454 | 0.139 | 0.999 | 0.798 | 0.446 | 0.109 | 1
COc1nnc2ccc(N3CCC(c4ccc(OCCN5CCN(C)C(=O)[C@H]5C)cc4)CC3)nn12 [AZD5153] + CCN(CCO)CCCOc1ccc2c(Nc3cc(CC(=O)Nc4cccc(F)c4)[nH]n3)ncnc2c1 [AZD2811] (first compound max 1 µM, 7x7, partner max 1 µM) | 0.628 | 0.64 | 0.39 | 0.912 | 0.542 | 0.355 | 0.582 | 0.571 | 0.939 | 0.637 | 0.375 | 0.409 | 1 | 0.639 | 0.537 | 1 | 0.649 | 0.8 | 0.832 | 1
Cc1cc2ncnn2cc1Nc1ncc2c(n1)n(C1CCOCC1)c(=O)n2C [AZD7648] + C=CCn1c(=O)c2cnc(Nc3ccc(N4CCN(C)CC4)cc3)nc2n1-c1cccc(C(C)(C)O)n1 [AZD1775] (first compound max 10 µM, partner max 1 µM) | 0.533 | 0.486 | 0.263 | 0.304 | 0.391 | 0.341 | 0.461 | 0.48 | 0.827 | 0.385 | 0.649 | 0.631 | 0.969 | 0.576 | 0.592 | 1 | 0.545 | 0.348 | 0.853 | 0.553
C[C@@H](c1ccc2nccn2c1)n1nnc2ncc(-c3cnn(C)c3)nc21 [Savolitinib] + CC1(C)CCC(CN2CCN(c3ccc(C(=O)NS(=O)(=O)c4ccc(NCC5CCOCC5)c([N+](=O)[O-])c4)c(Oc4cnc5[nH]ccc5c4)c3)CC2)=C(c2ccc(Cl)cc2)C1 [Venetoclax] (first compound max 1 µM, 7x7, partner max 1 µM) | 0.127 | 0.109 | 0.121 | 0.0587 | 0.117 | 0.268 | 0.236 | 0.204 | 0.261 | 0.299 | 0.115 | 0.0972 | 0.155 | 0.877 | 0.29 | 0.923 | 0.106 | 0.106 | 0.182 | 1
Cc1c2c(nn1C)CSCc1cc(n(C)n1)CSc1cc(c3ccccc3c1)OCCCc1c(C(=O)O)n(C)c3c-2c(Cl)ccc13 [AZD5991] + Cc1cc2ncnn2cc1Nc1ncc2c(n1)n(C1CCOCC1)c(=O)n2C [AZD7648] (first compound max 1 µM, 7x7, partner max 10 µM) | 1 | 0.361 | 0.305 | 1 | 0.223 | 0.501 | 0.926 | 0.302 | 1 | 0.692 | 0.419 | 0.483 | 0.722 | 0.127 | 0.515 | 1 | 0.956 | 0.957 | 0.619 | 1
COc1cccc(OCCCN)c1-c1cc(Nc2cnc(C#N)cn2)n[nH]1 [Prexasertib] + C=CCn1c(=O)c2cnc(Nc3ccc(N4CCN(C)CC4)cc3)nc2n1-c1cccc(C(C)(C)O)n1 [AZD1775] (first compound max 1 µM, partner max 1 µM) | 0.514 | 0.686 | 0.442 | 0.819 | 0.601 | 0.269 | 0.888 | 0.821 | 0.847 | 0.385 | 0.788 | 0.801 | 1 | 0.757 | 0.531 | 1 | 0.765 | 1 | 0.917 | 0.978
CN(C)CCCOc1ccc(-c2ccc3ncc4c(c3c2)n(C2CCOCC2)c(=O)n4C)cn1 [AZD0156] + C=CCn1c(=O)c2cnc(Nc3ccc(N4CCN(C)CC4)cc3)nc2n1-c1cccc(C(C)(C)O)n1 [AZD1775] (first compound max 1 µM, partner max 1 µM) | 0.473 | 0.17 | 0.224 | 0.299 | 0.292 | 0.104 | 0.377 | 0.4 | 0.675 | 0.257 | 0.523 | 0.651 | 0.891 | 0.69 | 0.49 | 0.985 | 0.564 | 0.656 | 0.858 | 0.602
CC1(C)CCC(CN2CCN(c3ccc(C(=O)NS(=O)(=O)c4ccc(NCC5CCOCC5)c([N+](=O)[O-])c4)c(Oc4cnc5[nH]ccc5c4)c3)CC2)=C(c2ccc(Cl)cc2)C1 [Venetoclax] + CCN(CCO)CCCOc1ccc2c(Nc3cc(CC(=O)Nc4cccc(F)c4)[nH]n3)ncnc2c1 [AZD2811] (first compound max 1 µM, 7x7, partner max 1 µM) | 0.515 | 0.222 | 0.245 | 0.886 | 0.177 | 0.212 | 0.181 | 0.485 | 0.391 | 0.207 | 0.143 | 0.21 | 0.888 | 0.117 | 0.34 | 1 | 0.285 | 0.481 | 0.282 | 1
